US12371432B2, “Haloallylamine compounds and application thereof” (TransThera Sciences (Nanjing), Inc., priority 2019, dated 2025)
Structures can show the parent of a compound that is named as a salt.

Key:
rhVAP-1 = target: T1, rhVAP-1 (Homo sapiens, UniProt Q16853); test: Inhibitory activity against rhVAP-1 enzyme (Biological Example 2); format: biochemical; conditions: Table 2; benzylamine substrate, Amplex Red/HRP
T1 construct: purchased PeproTech
T1 sequence (Q16853 27-763 limits assumed): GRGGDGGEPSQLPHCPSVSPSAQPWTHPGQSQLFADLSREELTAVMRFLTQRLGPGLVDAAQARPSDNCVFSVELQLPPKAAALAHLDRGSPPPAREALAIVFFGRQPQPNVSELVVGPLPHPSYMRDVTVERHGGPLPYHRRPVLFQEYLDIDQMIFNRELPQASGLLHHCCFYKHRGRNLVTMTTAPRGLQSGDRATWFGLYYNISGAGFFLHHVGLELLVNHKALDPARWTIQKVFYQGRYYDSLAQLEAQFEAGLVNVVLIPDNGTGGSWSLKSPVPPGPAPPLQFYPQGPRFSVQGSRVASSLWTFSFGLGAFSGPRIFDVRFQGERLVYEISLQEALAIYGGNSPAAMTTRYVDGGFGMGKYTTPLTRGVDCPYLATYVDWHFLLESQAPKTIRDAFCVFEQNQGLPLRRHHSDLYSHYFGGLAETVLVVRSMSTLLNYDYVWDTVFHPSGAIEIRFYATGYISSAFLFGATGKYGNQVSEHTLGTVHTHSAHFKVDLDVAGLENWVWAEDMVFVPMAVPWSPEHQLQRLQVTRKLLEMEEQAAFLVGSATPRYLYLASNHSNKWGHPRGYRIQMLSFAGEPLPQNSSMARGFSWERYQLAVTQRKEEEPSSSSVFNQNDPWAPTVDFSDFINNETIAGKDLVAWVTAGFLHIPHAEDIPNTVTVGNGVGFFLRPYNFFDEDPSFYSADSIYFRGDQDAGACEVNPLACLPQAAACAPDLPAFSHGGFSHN
Protocol: 1. Inhibitory Activity of Compounds Against rhVAP-1 Enzyme
(§1) (1) Instrument, Consumable and Reagent
Microplate reader (Perkin Elmer, Nivo 5S), black unclear-bottom 96-well plate (Corning) and rhVAP-1 (PeproTech)
(§2) (2) Preparation of Concentration Gradient Compound Solutions
(§3) An appropriate amount of the compound to be tested was taken, dissolved in DMSO to 10 mM and then stored. Before the study, an appropriate amount of mother liquor of the 10 mM compound to be tested was taken and gradiently diluted 3-fold with DMSO, 10 concentration gradients in total. Each concentration gradient was then diluted 100-fold with 0.1 M of PBS.
(§4) (3) Preparation of Enzyme Solutions
An appropriate amount of protein diluent was added into rhVAP-1 powder, obtaining 1 mg/mL of mother liquor for storage. Before the study, PBS was used to carry out dilution to obtain enzyme solutions of 4× concentrations.
(§5) (4) Preparation of Substrate Mixtures of 2× Concentrations
(§6) An appropriate amount of benzylamine was weighed and dissolved with PBS to obtain 200 mM of benzylamine solution. The benzylamine solution was added with 2 mM of Amplex Red mother liquor and 500 U/mL of HRP mother liquor and diluted with PBS to obtain substrate mixtures of 2× concentrations.
(§7) 10 μL compound solutions of different concentrations, 25 μL rhVAP-1 enzyme solutions of 4× concentrations and 15 μL of PBS were first added into a 96-well plate, shaken to be mixed uniformly and then incubated at 37° C. for 30 min. 50 μL substrate mixtures of 2× concentrations were then added into each well, and the microplate reader was immediately used to perform detection with 580 nm (20 nm) exciting light and 620 nm (10 nm) emission light for 5 min each time, 30 min in total. The inhibition rate was calculated according to the following formula: V (RFU/min)=(Ft (RFU)−F0 (RFU))/(time(min)) Inhibition rate (%)=100%−Vcmpd (RFU/min)/Vmax (RFU/min)×100%
(§8) V: fluorescence change rate; Ft: fluorescence reading at time point t; F0: initial fluorescence reading; Time: duration t; Vcmpd: fluorescence change rate of tested compound; Vmax: Max hole fluorescence change rate.
(§9) (6) Fitting of Dose-Response Curve
(§10) With the log value of concentration as the X axis and the percent inhibition rate as the Y axis, the log (inhibitor) vs. response-variable slope of analysis software GraphPad Prism 5 was used to fit a dose-response curve, thus obtaining the IC50 value of activity of each compound against the enzyme.

rhAOC1 = target: T2, rhAOC1 (Homo sapiens, UniProt P19801); test: Selectivity against rhAOC1 enzyme (Biological Example 2); format: biochemical; conditions: Table 2; histamine substrate, Amplex Red/HRP
T2 construct: purchased R&D
T2 sequence (P19801 20-751): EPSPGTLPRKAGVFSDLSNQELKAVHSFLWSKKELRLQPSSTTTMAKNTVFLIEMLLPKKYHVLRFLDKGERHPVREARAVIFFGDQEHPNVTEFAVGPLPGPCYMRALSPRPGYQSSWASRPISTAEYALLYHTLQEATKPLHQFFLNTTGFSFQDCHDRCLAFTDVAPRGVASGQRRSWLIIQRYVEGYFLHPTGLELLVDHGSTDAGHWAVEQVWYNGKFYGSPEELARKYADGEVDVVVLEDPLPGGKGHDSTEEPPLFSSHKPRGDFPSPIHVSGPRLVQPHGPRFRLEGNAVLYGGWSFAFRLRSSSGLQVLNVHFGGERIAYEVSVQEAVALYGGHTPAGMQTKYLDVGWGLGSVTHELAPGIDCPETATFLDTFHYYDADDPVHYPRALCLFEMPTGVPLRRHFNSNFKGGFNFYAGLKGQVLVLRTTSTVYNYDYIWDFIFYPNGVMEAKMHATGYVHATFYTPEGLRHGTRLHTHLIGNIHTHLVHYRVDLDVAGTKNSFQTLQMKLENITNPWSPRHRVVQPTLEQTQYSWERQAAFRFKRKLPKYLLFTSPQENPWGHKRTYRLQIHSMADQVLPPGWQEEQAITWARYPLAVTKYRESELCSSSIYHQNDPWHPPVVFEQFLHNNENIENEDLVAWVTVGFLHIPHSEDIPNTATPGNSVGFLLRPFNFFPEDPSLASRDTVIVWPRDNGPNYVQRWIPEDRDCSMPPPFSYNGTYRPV
Protocol: 2. Selectivity of Compounds Against rhAOC1 Enzyme
as §1
Microplate reader (Perkin Elmer, Nivo 5S), black unclear-bottom 96-well plate (Corning) and rhAOC1 (R&D)
as §2
as §3, with “10-fold” for “100-fold”
as §4
An appropriate amount of rhAOC1 mother liquor with a concentration of 0.441 mg/mL was taken and diluted with an appropriate amount of 50 mM HEPES buffer solution to obtain enzyme solutions of 4× concentrations.
as §5
as §6, with “histamine” for “benzylamine”, “50 mM of HEPES buffer solution” for “PBS”, “20” for “200”
as §7, with “rhAOC1” for “rhVAP-1”, “50 mM HEPES buffer solution” for “PBS”, “detect fluorescence intensity of each well” for “perform detection”
as §8, §9, §10

IC50 (rhVAP-1)	IC50 (rhAOC1)	SMILES
96 nM	4050 nM	CC(C)(C)N1CCc2c(cnn2C/C(=C/F)CN)C1=O [Compound A21, (E)-1-(2-(aminomethyl)-3-fluoroallyl)-5-(tert-butyl)-1,5,6,7-tetrahydro-4H-pyrazolo[4,3-c]pyridin-4-one]
37 nM	911 nM	NC/C(=C\F)Cn1cc2c(n1)CCN(C1CCC1)C2=O [Compound A9 hydrochloride, (E)-2-(2-(aminomethyl)-3-fluoroallyl)-5-cyclobutyl-2,5,6,7-tetrahydro-4H-pyrazolo[4,3-c]pyridin-4-one]
40 nM	1240 nM	NC/C(=C\F)Cn1cc2c(n1)CCN(C1CCCC1)C2=O [Compound A10 hydrochloride, (E)-2-(2-(aminomethyl)-3-fluoroallyl)-5-cyclopentyl-2,5,6,7-tetrahydro-4H-pyrazolo[4,3-c]pyridin-4-one]
20 nM	–	COCCN1CCc2nn(C/C(=C/F)CN)cc2C1=O [Compound A47 hydrochloride, (E)-2-(2-(aminomethyl)-3-fluoroallyl)-5-(2-methoxyethyl)-2,5,6,7-tetrahydro-4H-pyrazolo[4,3-c]pyridin-4-one]
12 nM	–	NC/C(=C\F)Cn1cc2c(n1)CCN(CC1CC1)C2=O [Compound A48 hydrochloride, (E)-2-(2-(aminomethyl)-3-fluoroallyl)-5-(cyclopropylmethyl)-2,5,6,7-tetrahydro-4H-pyrazolo[4,3-c]pyridin-4-one]
54 nM	4720 nM	CN1CCc2nn(C/C(=C/F)CN)cc2C1=O [Compound A24 hydrochloride, (E)-2-(2-(aminomethyl)-3-fluoroallyl)-5-methyl-2,5,6,7-tetrahydro-4H-pyrazolo[4,3-c]pyridin-4-one]
67 nM	1080 nM	NC/C(=C\F)Cn1ccc2cc(C(=O)N3CCC3)ccc21 [Compound C13 hydrochloride, (E)-(1-(2-(aminomethyl)-3-fluoroallyl)-1H-indol-5-yl)(azetidin-1-yl)methanone]
53 nM	8280 nM	CCN1Cc2cnn(C/C(=C/F)CN)c2C1=O [Compound A31 hydrochloride, (E)-1-(2-(aminomethyl)-3-fluoroallyl)-5-ethyl-4,5-dihydropyrrolo[3,4-c]pyrazol-6(1H)-one]
96 nM	13400 nM	NC/C(=C\F)Cn1ccc2cc(C(=O)N3CCCC3)ccc21 [Compound C7 hydrochloride, (E)-(1-(2-(aminomethyl)-3-fluoroallyl)-1H-indole-5-yl)(pyrrolidin-1-yl)methanone]
58 nM	4180 nM	CC(C)(C)N1Cc2nn(C/C(=C/F)CN)cc2C1=O [Compound A13, (E)-2-(2-(aminomethyl)-3-fluoroallyl)-5-(tert-butyl)-5,6-dihydropyrrolo[3,4-c]pyrazol-4(2H)-one]
55 nM	5380 nM	CCNC(=O)c1cnn(C/C(=C/F)CN)c1 [Compound B2, (E)-1-(2-(aminomethyl)-3-fluoroallyl)-N-ethyl-1H-pyrazole-4-carboxamide]
51 nM	5930 nM	NC/C(=C\F)Cn1cc(C(=O)NC2CC2)cn1 [Compound B4 hydrochloride, (E)-1-(2-(aminomethyl)-3-fluoroallyl)-N-cyclopropyl-1H-pyrazole-4-carboxamide]
83 nM	8580 nM	CC(C)(C)NC(=O)c1ccn(C/C(=C/F)CN)c1 [Compound B12, (E)-1-(2-aminomethyl-3-fluoroallyl)-N-tert-butyl-1H-pyrrole-3-carboxamide]
50 nM	13100 nM	COC1CCN(C(=O)c2ccc3c(ccn3C/C(=C/F)CN)c2)CC1 [Compound C14 hydrochloride, (E)-(1-(2-(aminomethyl)-3-fluoroallyl)-1H-indol-5-yl)(4-methoxypiperidin-1-yl)methanone]
17 nM	–	CCC(C)(C)N1CCc2nn(C/C(=C/F)CN)cc2C1=O [Compound A49 hydrochloride, (E)-2-(2-(aminomethyl)-3-fluoroallyl)-5-(tert-pentyl)-2,5,6,7-tetrahydro-4H-pyrazolo[4,3-c]pyridin-4-one]
63 nM	8380 nM	COC1(C)CCN(C(=O)c2ccc3c(ccn3C/C(=C/F)CN)c2)CC1 [Compound C15 hydrochloride, (E)-(1-(2-(aminomethyl)-3-fluoroallyl)-1H-indol-5-yl)(4-methoxy-4-methylpiperidin-1-yl)methanone]
39 nM	–	NC/C(=C\F)Cn1cc2c(n1)CCNC2=O [Compound A23 hydrochloride, (E)-2-(2-(aminomethyl)-3-fluoroallyl)-2,5,6,7-tetrahydro-4H-pyrazolo[4,3-c]pyridin-4-one]
14 nM	–	NC/C(=C\F)Cn1cc(C(=O)Nc2ccc(Cl)cc2)cn1 [Compound B28, (E)-1-(2-aminomethyl-3-fluoroallyl)-N-4-chlorophenyl-1H-pyrazole-4-carboxamide]
